# In paper PMC11609934, “Exploration and characterization of the antimalarial activity of cyclopropyl carboxamides that target the mitochondrial protein, cytochrome b” (European Journal of Medicinal Chemistry, 2024):
# Test system: 3D7 P. falciparum strain
# Experiment: Parasite reduction ratio (PRR) assay
# Format: cell-based, Plasmodium falciparum
# Details: 10 times the EC50, up to 120 h
# Description: The parasite reduction ratio (PRR) assay is a benchmark assay used to determine the speed of kill of antimalarials at an early stage of development. […] After 28 days of incubation, parasite growth is measured using an LDH assay.
# Parasite Reduction Ratio Assay. This is a platform assay conducted by TGC Lifesciences using a previously described protocol. […] Parasites were treated up to 120 h. Drug was renewed every 24 h over the entire treatment period (as directed). Samples of parasites were taken from the treated culture every 24 h (24, 48, 72, 96 and 120 h time points), drug was washed out and drug-free parasites were cultured in 96 well plates. To quantify number of viable parasites after treatment, serial dilutions were performed with the above-mentioned compounds after washing out the compound. Parasites were cultured in microtiter plates to allow all wells with viable parasites, to render detectable parasitaemia. After 22 days of culturing, cultured plates were checked for parasite growth. Final sampling was done after 28 days to confirm growth/no growth. The parasite levels were determined using a LDH assay as follows. A culture of parasitized red blood cells (RBC) of strain 3D7 with 0.25 % parasitaemia and 2 % haematocrit in RPMI-1640, 0.5 % albumax and 150 μM hypoxanthine is exposed to 3-fold serial dilutions of the compound. […]
compound,measurement,value
O=C(NC1CC1)c1ccc(CN(Cc2ccc(Cl)cc2Cl)C2CC2)cc1 [W499 (2)],rate of kill in PRR assay,moderate to slow rate of kill
